As usually defined, the inhibition is the relative decrease from the control value, in per cent. The % Inhibition is the relative decrease from the control value, in per cent. A high value points to a strong effect.

Test [1] deals with GABAA (alpha1/beta2/gamma2) Human Ion Channel, Picrotoxinin site (Homo sapiens, UniProt P14867+P18507+P47870). As to the kind of experiment: biochemical. It is filed as binding.
The subject of test [2] is Ca2+ channel (L, verapamil site) (phenylalkylamine). Put plainly: Eurofins panel: Ca2+ channel (L, verapamil site) (phenylalkylamine) (antagonist radioligand). It is filed as binding. Conditions: 1.0E-05 M.
A further test addresses T1, cathepsin B (h) (Homo sapiens, UniProt P07858).
T1 construct: Eurofins (panel run by the vendor)
Put plainly: Eurofins panel: cathepsin B (h) enzymatic activity. It is filed as biochemical. Particulars: 1.0E-05 M; cathepsin B (h).

A further test deals with EGFR kinase (h) (Homo sapiens, UniProt P00533). Particulars: Enzymatic activity; 1.0E-05 M.
Sequence of EGFR kinase (h) (P00533 25-1210): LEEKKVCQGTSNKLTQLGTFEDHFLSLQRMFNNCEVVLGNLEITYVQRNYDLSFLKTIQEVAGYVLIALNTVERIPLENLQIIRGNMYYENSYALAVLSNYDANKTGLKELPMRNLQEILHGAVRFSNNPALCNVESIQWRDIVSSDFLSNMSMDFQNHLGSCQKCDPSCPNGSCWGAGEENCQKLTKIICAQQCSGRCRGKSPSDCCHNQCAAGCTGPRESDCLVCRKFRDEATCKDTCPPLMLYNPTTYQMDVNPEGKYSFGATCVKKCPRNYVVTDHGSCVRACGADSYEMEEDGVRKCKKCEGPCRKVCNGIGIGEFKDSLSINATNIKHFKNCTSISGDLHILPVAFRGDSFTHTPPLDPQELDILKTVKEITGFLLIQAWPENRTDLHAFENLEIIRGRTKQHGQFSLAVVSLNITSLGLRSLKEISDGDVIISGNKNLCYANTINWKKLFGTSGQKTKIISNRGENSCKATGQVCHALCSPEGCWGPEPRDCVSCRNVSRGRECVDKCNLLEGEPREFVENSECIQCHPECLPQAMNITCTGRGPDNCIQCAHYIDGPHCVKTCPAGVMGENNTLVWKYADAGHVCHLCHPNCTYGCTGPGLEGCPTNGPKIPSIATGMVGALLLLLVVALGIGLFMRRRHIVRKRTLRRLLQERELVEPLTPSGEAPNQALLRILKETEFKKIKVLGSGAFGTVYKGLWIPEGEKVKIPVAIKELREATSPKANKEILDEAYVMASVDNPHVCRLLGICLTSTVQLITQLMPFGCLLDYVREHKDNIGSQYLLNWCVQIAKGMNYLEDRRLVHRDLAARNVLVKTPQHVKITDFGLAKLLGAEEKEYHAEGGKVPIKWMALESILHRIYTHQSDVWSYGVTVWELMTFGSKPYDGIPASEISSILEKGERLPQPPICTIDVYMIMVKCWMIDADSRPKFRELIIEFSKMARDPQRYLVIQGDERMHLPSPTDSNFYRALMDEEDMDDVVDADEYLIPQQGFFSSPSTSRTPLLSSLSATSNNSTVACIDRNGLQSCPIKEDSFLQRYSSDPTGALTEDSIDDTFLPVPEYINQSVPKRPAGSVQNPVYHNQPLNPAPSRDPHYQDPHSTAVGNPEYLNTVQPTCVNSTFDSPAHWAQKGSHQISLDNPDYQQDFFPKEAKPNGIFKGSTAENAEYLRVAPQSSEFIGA
Another test has as its target CB1 (h) (Homo sapiens, UniProt P21554). Put plainly: biochemical.
Another test addresses H3 (h) (Homo sapiens, UniProt Q9Y5N1). As to the kind of experiment: biochemical.

Sequence of CB1 (h) (P21554 whole entry): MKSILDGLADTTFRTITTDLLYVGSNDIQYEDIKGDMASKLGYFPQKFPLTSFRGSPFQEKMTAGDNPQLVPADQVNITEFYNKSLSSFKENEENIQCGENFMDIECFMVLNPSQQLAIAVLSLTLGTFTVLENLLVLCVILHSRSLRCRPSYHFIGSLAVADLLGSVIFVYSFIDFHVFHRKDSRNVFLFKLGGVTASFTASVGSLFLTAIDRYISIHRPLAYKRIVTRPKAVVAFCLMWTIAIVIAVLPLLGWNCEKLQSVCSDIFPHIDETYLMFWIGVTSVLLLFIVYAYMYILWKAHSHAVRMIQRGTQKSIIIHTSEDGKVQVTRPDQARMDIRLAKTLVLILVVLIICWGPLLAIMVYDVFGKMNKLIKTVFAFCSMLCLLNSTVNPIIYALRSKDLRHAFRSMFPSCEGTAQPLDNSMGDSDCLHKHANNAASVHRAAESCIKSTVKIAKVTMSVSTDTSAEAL
Sequence of H3 (h) (Q9Y5N1 whole entry): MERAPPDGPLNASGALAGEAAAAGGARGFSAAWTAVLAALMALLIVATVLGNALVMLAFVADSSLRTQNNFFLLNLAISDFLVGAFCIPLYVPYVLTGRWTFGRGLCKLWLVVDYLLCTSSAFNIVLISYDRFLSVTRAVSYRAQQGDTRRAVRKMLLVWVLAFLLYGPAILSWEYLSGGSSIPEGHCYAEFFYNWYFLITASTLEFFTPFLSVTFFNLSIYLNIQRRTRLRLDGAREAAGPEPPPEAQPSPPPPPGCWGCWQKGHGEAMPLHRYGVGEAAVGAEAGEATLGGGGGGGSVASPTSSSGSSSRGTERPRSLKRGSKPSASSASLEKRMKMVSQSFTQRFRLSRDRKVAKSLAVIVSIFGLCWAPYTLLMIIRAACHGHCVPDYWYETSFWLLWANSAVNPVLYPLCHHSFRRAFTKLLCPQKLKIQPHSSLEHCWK
Sequence of GABAA (alpha1/beta2/gamma2) Human Ion Channel, Picrotoxinin site (P47870 25-512): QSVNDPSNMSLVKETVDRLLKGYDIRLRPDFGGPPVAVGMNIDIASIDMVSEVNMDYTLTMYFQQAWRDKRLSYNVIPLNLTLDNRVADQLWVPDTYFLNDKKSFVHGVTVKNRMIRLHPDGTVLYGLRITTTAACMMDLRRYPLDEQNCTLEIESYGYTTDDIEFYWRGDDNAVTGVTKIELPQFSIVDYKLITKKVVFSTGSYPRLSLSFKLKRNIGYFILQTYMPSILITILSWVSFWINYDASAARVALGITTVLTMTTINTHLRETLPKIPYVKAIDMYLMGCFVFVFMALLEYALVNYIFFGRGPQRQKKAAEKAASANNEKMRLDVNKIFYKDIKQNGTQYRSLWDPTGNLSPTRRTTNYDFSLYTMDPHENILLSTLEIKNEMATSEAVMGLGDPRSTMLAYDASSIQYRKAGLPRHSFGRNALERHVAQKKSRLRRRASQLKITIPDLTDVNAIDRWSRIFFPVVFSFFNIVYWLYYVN
Sequence of GABAA (alpha1/beta2/gamma2) Human Ion Channel, Picrotoxinin site (P14867 28-456): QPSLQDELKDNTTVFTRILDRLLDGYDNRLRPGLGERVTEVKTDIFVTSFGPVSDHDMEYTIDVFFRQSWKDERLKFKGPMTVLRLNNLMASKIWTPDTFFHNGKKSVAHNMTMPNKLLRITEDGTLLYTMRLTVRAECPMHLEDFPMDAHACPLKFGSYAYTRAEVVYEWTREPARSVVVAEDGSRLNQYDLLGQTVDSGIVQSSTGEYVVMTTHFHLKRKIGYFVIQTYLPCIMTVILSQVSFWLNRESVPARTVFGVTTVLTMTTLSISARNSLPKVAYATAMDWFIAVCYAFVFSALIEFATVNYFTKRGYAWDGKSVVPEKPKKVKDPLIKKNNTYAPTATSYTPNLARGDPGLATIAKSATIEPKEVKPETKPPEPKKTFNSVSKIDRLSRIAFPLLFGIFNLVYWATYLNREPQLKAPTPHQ
Sequence of GABAA (alpha1/beta2/gamma2) Human Ion Channel, Picrotoxinin site (P18507 40-475): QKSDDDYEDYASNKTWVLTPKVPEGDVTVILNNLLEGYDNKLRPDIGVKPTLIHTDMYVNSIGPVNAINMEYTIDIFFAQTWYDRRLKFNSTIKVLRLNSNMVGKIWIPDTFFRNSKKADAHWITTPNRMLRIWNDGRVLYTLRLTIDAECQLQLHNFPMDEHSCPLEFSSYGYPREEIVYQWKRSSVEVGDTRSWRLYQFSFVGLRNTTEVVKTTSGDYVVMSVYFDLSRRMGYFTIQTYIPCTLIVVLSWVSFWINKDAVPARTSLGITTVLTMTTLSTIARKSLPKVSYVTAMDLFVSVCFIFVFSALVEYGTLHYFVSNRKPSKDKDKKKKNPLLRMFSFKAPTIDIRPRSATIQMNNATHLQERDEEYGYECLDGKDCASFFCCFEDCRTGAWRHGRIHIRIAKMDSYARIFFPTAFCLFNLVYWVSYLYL

For the molecule `Fc1nc(N2CCOCC2)ccc1-c1cc2ccccc2[nH]1` [Compound 75, 4-(6-Fluoro-5-(1H-indol-2-yl)pyridin-2-yl)morpholine], the inhibition at 10 µM is 8.53% in test [1], -0.0362% against CB1 (h) and -4.9% on H3 (h). The “% Inhibition, Specific binding” value in test [2] is on record as -2.08E+01%. For the same molecule, the “% Inhibition, Enzymatic activity” value on cathepsin B (h) is given as -8.47E+00%. Besides, the “% Inhibition” value on EGFR kinase (h) is 16.5474%.

The values are drawn from paper PMC11956013, “Structure–Activity Relationships and Evaluation of 2-(Heteroaryl-cycloalkyl)-1H-indoles as Tauopathy Positron Emission Tomography Radiotracers” (Journal of Medicinal Chemistry, 2025).
